# Paper PMC12645437, “Orthogonal IMiD-Degron Pairs Induce Selective Protein Degradation in Cells” (ACS Chemical Biology, 2025)
# Columns and labels:
# [1] = biological target: T1, Q147A mutant degron (ANQS) fused to EGFP (Homo sapiens, UniProt Q96SW2+Q9UKT9, Q147A); assay: Ratiometric EGFP:mCherry flow cytometry degradation assay, 18 h; type: cell-based; settings: Jurkat, read-out: DMax Q147A/%
# T1 construct: pLVX-Sprout-IKZF3 130-189aa Q147A (ANQS); expressed in transfected cells
# [2] = test system: Jurkat cells; assay: TMTpro quantitative proteomics, 16 h; settings: for Scaled value (to 150), replicate 01 / Scaled value (to 150), replicate 02 / Scaled value (to 150), replicate 03: Jurkat whole cell extracts, TMTpro SPS-MS3
# Experimental: Quantitative proteomics screens were carried out in untransduced Jurkat cells, embryonic stem cells (ESCs), and the multiple myeloma cell line, MM.1S. We used Jurkat cells, as our work up to this point had employed this cell line, and we selected ESCs and MM.1S cells as they express known CRBN neosubstrates, including IKZF1, IKZF3, RAB28, RNF166, SALL4, ZFP91, and ZNF827.
# Proteomics - cell lysis and protein digestion
# The viability of Jurkat cells was tested after 16-h treatment with corresponding chemicals
# viable cells in each condition. Next, ~10^7 cells per condition were collected by centrifugation (1000 rpm), washed twice with ice-cold PBS, and lysed in RIPA buffer [50 mM HEPES pH 7.4, 150 mM NaCl, 1% sodium deoxycholate, 1% NP-40, 0.1% SDS, 10 mM sodium pyrophosphate, 10 mM β-glycerophosphate, 2.5 mM MgCl2, 200 µM TCEP, phosphatase and protease inhibitor cocktail (in-house)], to produce whole cell extracts. Whole-cell extracts were sonicated, and protein concentrations were determined using the Bradford assay. Protein extracts (100 µg) were subjected to disulfide bond reduction with 5 mM TCEP (10 min) and alkylation with 25 mM chloroacetamide (20 min). Methanol–chloroform precipitation was performed prior to protease digestion. In brief, four parts of neat methanol were added to each sample and vortexed, one part chloroform was added to the sample and vortexed, and finally, three parts water was added to the sample and vortexed. The sample was centrifuged at 8000 rpm for 5 min at room temperature and subsequently washed twice with 100% methanol. Samples were resuspended in 100 mM EPPS pH8.5 containing
# 0.1% RapiGest and digested at 37 °C for 6 h with trypsin at a 100:1 protein-to-protease ratio.
# Samples were then subjected to TMTpro
# labeling. The preparation of MM1S cell extracts was conducted using the same procedure as for
# Jurkat cells. ESC cells were plated onto 6 cm dishes 24 hours prior to the chemical treatment.
# Following the chemical treatment, the cells on the dish were washed with DPBS four times, after
# which RIPA buffer was added directly to the dish, and the lysate was collected using a scraper.
# The whole cell lysates were then processed similarly to the Jurkat cell lysates.
# Proteomics - Tandem mass tag labeling
# Proline-based reporter isobaric Tandem Mass Tag (TMTpro) labeling of dried peptide samples
# resuspended in 100 mM EPPS pH 8.5, was carried out as follows. TMTpro reagent was added to
# samples (100 µg peptide), along with acetonitrile, to achieve a final acetonitrile concentration of
# approximately 30% (v/v). Following incubation at room temperature for 1 h, the labeling efficiency
# of a small aliquot was tested. The reaction was then quenched with hydroxylamine to a final
# concentration of 0.5% (v/v) for 15 min. The TMTpro-labeled samples were pooled together at a
# 1:1 ratio. The sample was vacuum centrifuged to near dryness and subjected to C18 solid-phase
# The dried TMTpro-labeled sample was resuspended in 100 μL of 10 mM NH4HCO3 pH 8.0 and
# fractionated using basic pH reverse phase HPLC 40. Briefly, samples were offline fractionated over
# a 90 min run, into 96 fractions by high pH reverse-phase HPLC (Agilent LC1260) through an aeris
# peptide xb-c18 column (Phenomenex; 250 mm × 3.6 mm) for total proteome with mobile phase A
# containing 5% acetonitrile and 10 mM NH4HCO3, and mobile phase B containing 90% acetonitrile
# [3] = test system: library of 8380 IKZF3 degrons fused to EGFP in Jurkat cells; assay: Pooled mutant ZF degron library screen (FACS EGFPlow vs EGFP+, NGS), 18 h; type: cell-based, human; settings: for Log2FC: WT degron, residues 146/147/149/150/152/153/154/155/167: FQNQGASFL;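 as to logFC: Log2 fold change of EGFPlow over EGFP+ representation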
# [4] = protein AADAT isoform 2 (Q8N5Z0-2)
# T1 sequence (Q9UKT9 130-189 Q147A): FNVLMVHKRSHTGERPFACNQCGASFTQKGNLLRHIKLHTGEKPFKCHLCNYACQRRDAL
# T1 sequence (Q96SW2 whole entry, the tested form may be a part): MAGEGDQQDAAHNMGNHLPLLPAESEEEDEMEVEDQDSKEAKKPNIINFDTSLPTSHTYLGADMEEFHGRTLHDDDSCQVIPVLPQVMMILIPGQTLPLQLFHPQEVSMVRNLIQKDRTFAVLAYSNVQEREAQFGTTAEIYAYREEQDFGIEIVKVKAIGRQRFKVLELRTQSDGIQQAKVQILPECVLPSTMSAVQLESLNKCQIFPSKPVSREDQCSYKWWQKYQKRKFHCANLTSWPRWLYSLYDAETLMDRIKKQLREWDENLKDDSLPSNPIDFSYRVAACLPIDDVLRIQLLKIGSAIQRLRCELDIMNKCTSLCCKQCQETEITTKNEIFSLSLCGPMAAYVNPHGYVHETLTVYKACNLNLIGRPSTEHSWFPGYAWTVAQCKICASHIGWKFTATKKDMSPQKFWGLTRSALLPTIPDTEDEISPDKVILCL
# T1 sequence (Q16531 whole entry partner, the tested form may be a part): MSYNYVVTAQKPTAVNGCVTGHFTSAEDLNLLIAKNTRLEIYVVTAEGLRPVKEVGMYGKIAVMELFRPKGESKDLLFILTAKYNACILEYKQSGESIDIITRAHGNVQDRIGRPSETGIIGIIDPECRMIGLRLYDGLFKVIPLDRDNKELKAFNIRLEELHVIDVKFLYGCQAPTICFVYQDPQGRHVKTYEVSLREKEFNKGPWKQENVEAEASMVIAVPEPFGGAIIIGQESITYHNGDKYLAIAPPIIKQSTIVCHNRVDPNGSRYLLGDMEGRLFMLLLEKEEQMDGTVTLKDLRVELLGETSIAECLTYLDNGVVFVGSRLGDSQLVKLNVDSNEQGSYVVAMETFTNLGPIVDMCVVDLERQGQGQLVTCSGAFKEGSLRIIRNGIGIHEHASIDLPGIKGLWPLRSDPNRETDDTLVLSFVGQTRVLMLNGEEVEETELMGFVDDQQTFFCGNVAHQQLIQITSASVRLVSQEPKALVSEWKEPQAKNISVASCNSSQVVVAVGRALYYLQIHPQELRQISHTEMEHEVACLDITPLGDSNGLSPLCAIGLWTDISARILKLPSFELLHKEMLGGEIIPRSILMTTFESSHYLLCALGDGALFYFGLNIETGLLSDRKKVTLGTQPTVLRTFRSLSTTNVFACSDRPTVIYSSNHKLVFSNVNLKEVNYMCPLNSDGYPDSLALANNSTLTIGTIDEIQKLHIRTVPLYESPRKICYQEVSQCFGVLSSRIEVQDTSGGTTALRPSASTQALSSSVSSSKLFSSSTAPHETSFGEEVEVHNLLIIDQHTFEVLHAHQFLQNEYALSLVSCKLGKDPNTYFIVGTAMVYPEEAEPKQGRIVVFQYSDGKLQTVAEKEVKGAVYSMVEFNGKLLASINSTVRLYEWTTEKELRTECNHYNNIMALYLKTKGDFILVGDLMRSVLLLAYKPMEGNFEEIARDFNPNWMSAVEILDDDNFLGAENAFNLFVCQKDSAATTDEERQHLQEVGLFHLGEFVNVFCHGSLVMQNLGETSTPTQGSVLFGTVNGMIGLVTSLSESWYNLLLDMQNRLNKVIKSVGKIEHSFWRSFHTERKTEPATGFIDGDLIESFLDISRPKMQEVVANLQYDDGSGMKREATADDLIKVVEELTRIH
smiles,measurement,setting,value
"O=C1CCC(N2C(=O)c3ccccc3C2=O)C(=O)N1 (stereo not shown) [Compound 1, thalidomide, reference compound]",Dmax,[1],82%
same,"Scaled value (to 150), replicate 01",[2]; protein A2M (P01023),8.46
same,"Scaled value (to 150), replicate 02",[2]; protein A2M (P01023),13.549
same,"Scaled value (to 150), replicate 03",[2]; protein A2M (P01023),7.506
same,"Scaled value (to 150), replicate 01",[2]; protein AAAS (Q9NRG9),10.0487
same,"Scaled value (to 150), replicate 02",[2]; protein AAAS (Q9NRG9),9.769
same,"Scaled value (to 150), replicate 03",[2]; protein AAAS (Q9NRG9),10.5105
same,"Scaled value (to 150), replicate 01",[2]; protein AACS (Q86V21),10.2228
same,"Scaled value (to 150), replicate 02",[2]; protein AACS (Q86V21),10.5542
same,"Scaled value (to 150), replicate 03",[2]; protein AACS (Q86V21),9.811
same,"Scaled value (to 150), replicate 01",[2]; [4],9.84
same,"Scaled value (to 150), replicate 02",[2]; [4],10.2362
same,"Scaled value (to 150), replicate 03",[2]; [4],11.2082
same,proteins degraded (quantitative proteomics),"[2]; Jurkat, 10 μM, 16 h, 9644 quantified proteins",did not induce major protein degradation
same,Log2FC,[3]; listed as Thal,1.13
same,Log2FC,[3]; listed as Thalidomide,1.1337
same,logFC,[3]; degron residues 146/147/149/150/152/153/154/155/167: FADIGAAFL,-0.52
same,logFC,"[3]; degron residues 146/147/149/150/152/153/154/155/167: FADIGAAFL, listed as A32",-0.5175
same,logFC,[3]; degron residues 146/147/149/150/152/153/154/155/167: FADIGACFL,-1.27
same,logFC,"[3]; degron residues 146/147/149/150/152/153/154/155/167: FADIGACFL, listed as A32",-1.269
same,logFC,[3]; degron residues 146/147/149/150/152/153/154/155/167: FADIGADFL,-2.30
same,logFC,"[3]; degron residues 146/147/149/150/152/153/154/155/167: FADIGADFL, listed as A32",-2.302
same,logFC,[3]; degron residues 146/147/149/150/152/153/154/155/167: FADIGAEFL,-1.72
same,logFC,"[3]; degron residues 146/147/149/150/152/153/154/155/167: FADIGAEFL, listed as A32",-1.72
same,logFC,[3]; degron residues 146/147/149/150/152/153/154/155/167: FADIGAFFL,-2.34
same,logFC,[3]; degron residues 146/147/149/150/152/153/154/155/167: FADIGAGFL,-1.45
same,logFC,[3]; degron residues 146/147/149/150/152/153/154/155/167: FADIGAHFL,-1.89
same,logFC,[3]; degron residues 146/147/149/150/152/153/154/155/167: FADIGAIFL,-1.38
same,logFC,[3]; degron residues 146/147/149/150/152/153/154/155/167: FADIGAKFL,-0.77
same,logFC,[3]; degron residues 146/147/149/150/152/153/154/155/167: FADIGALFL,-1.99
same,logFC,[3]; degron residues 146/147/149/150/152/153/154/155/167: FADIGAMFL,-1.81
same,logFC,[3]; degron residues 146/147/149/150/152/153/154/155/167: FADIGANFL,-1.52
same,logFC,[3]; degron residues 146/147/149/150/152/153/154/155/167: FADIGAPFL,0.38
same,logFC,[3]; degron residues 146/147/149/150/152/153/154/155/167: FADIGAQFL,-1.14
same,logFC,[3]; degron residues 146/147/149/150/152/153/154/155/167: FADIGARFL,-0.98
same,logFC,[3]; degron residues 146/147/149/150/152/153/154/155/167: FADIGASFL,-1.01
same,logFC,[3]; degron residues 146/147/149/150/152/153/154/155/167: FADIGATFL,-1.50
same,logFC,[3]; degron residues 146/147/149/150/152/153/154/155/167: FADIGAVFL,-1.28
same,logFC,[3]; degron residues 146/147/149/150/152/153/154/155/167: FADIGAWFL,-2.70
same,logFC,[3]; degron residues 146/147/149/150/152/153/154/155/167: FADIGAYFL,-1.46
same,logFC,[3]; degron residues 146/147/149/150/152/153/154/155/167: FADQGAAFL,-3.14
same,logFC,[3]; degron residues 146/147/149/150/152/153/154/155/167: FADQGACFL,-2.81
same,logFC,[3]; degron residues 146/147/149/150/152/153/154/155/167: FADQGADFL,-2.96
same,logFC,[3]; degron residues 146/147/149/150/152/153/154/155/167: FADQGAEFL,-3.47
same,logFC,[3]; degron residues 146/147/149/150/152/153/154/155/167: FADQGAFFL,-3.47
same,logFC,[3]; degron residues 146/147/149/150/152/153/154/155/167: FADQGAGFL,-2.45
same,logFC,[3]; degron residues 146/147/149/150/152/153/154/155/167: FADQGAHFL,-3.40
same,logFC,[3]; degron residues 146/147/149/150/152/153/154/155/167: FADQGAIFL,-2.61
same,logFC,[3]; degron residues 146/147/149/150/152/153/154/155/167: FADQGAKFL,-2.20
same,logFC,[3]; degron residues 146/147/149/150/152/153/154/155/167: FADQGALFL,-2.67
same,logFC,[3]; degron residues 146/147/149/150/152/153/154/155/167: FADQGAMFL,-2.56
same,logFC,[3]; degron residues 146/147/149/150/152/153/154/155/167: FADQGANFL,-3.17
